In patent publication US20160250213A1, “FORMULATIONS OF AZAINDOLE COMPOUNDS” (priority 2013, published 2016):
Where two headings read alike, the source gives them in different places. Marks after values point to notes of the source that are not given here.

Key:
[1] = test system: Influenza A/California/04/2009 (pndH1N1) virus; assay type: in vivo, BALB/c mice; details: 10 mg/kg p.o. twice a day for 10 days starting 2 hours prior to virus exposure
[2] = test system: Influenza A/Victoria/3/75 (H3N2) virus; assay type: in vivo, BALB/c mice; details: 10 mg/kg p.o. twice a day for 10 days starting 2 hours prior to virus exposure
A/Puerto Rico/8/34 = assay type: cell-based, influenza A virus
influenza A virus = assay type: in vivo, mice
influenza A = test system: influenza A; set-up: species or system mice; details: mouse, in vivo
[3] = ambient temperature

SMILES: CCOC(=O)C1=C[C@@H](OC(CC)CC)[C@H](NC(C)=O)[C@@H](N)C1 [Oseltamivir, reference compound]
- Mean Lung Parameters (Day 6): Score (hemorrhage, 0 to 4) [1]: 1.0
- Mean Lung Parameters (Day 6): Virus Titer [1]: 7.9 Log10 CCID50/g
- Mean Lung Parameters (Day 6): Weight [1]: 178 mg
- Survivors/Total [1]: 10/10***
- MDD ± SD (mean day of death of mice that died on or before day 21) [2]: 7.0
- Mean Lung Parameters (Day 6): Score (hemorrhage, 0 to 4) [2]: 1.7 ± 1.1
- Mean Lung Parameters (Day 6): Virus Titer [2]: 7.0 ± 0.3 Log10 CCID50/g
- Mean Lung Parameters (Day 6): Weight [2]: 218 ± 24 mg
- Survivors/Total [2]: 9/10***
- C.I. (combination index) values at the 50% effect level (A/Puerto Rico/8/34): 0.58
- dosing initiation post infection up to which complete protection is provided (influenza A virus; 10 mg/kg BID): ≤ 24 h
- survival (influenza A virus; 10 mg/kg BID, same experiment (prophylactic)): survived
- survival (influenza A virus; mouse, in vivo): survived
- Log10 Reduction vs. Vehicle (influenza A): −0.15 Log10
- Lung Viral Titer (influenza A; 10 mg/kg): 6.05 Log10 TCID50

SMILES: CC(=O)N[C@H]1[C@H]([C@H](O)[C@H](O)CO)OC(C(=O)O)=C[C@@H]1N=C(N)N [Zanamivir]
- C.I. (combination index) values at the 50% effect level (A/Puerto Rico/8/34): 0.64
- Synergy Volume, 95% Confidence (A/Puerto Rico/8/34): 268

SMILES: NC(=O)c1nc(F)c[nH]c1=O [favipiravir]
- C.I. (combination index) values at the 50% effect level (A/Puerto Rico/8/34): 0.89
- Synergy Volume, 95% Confidence (A/Puerto Rico/8/34): 317

SMILES: CCC(CC)O[C@@H]1C=C(C(=O)O)C[C@H](N)[C@H]1NC(C)=O [oseltamivir carboxylate]
- Synergy Volume, 95% Confidence (A/Puerto Rico/8/34; Bliss Independence (Macsynergy), in combination with Compound (1)): 312

SMILES: O=C(O)[C@H]1C2CCC(CC2)C1Nc1nc(-c2c[nH]c3ncc(F)cc23)ncc1F (stereo partly drawn) [amorphous compound (1)]
- Resulting Form ([3]; solvent 1,1,2-Trichloroethane): Amorphous
- Resulting Form ([3]; solvent 1,2-Dichloroethane): Amorphous
- Resulting Form ([3]; solvent 1,2-Dimethoxyethane): Amorphous
- Resulting Form ([3]; solvent 1,4-Dioxane): Solvate (1:1)
- Resulting Form ([3]; solvent 1-Butanol): Solvate (1:1)
- Resulting Form ([3]; solvent 1-Pentanol): Solvate(1:1)
- Resulting Form ([3]; solvent 1-Propanol): No signal
- Resulting Form ([3]; solvent 2-Butanol): Solvate(1:1)
- Resulting Form ([3]; solvent 2-Ethoxyethanol): No signal
- Resulting Form ([3]; solvent 2-Methoxyethanol): No signal
- Resulting Form ([3]; solvent 2-Methy-1-propanol): Solvate(1:1)
- Resulting Form ([3]; solvent 2-Propanol): Solvate(1:1)
- Resulting Form ([3]; solvent 3-Methyl-1-butanol): Solvate
- Resulting Form ([3]; solvent Acetone): Solvate
- Resulting Form ([3]; solvent Acetonitrile): Amorphous
- Resulting Form ([3]; solvent Anisole): Amorphous
- Resulting Form ([3]; solvent Butyl acetate): Amorphous
- Resulting Form ([3]; solvent Chlorobenzene): Amorphous
- Resulting Form ([3]; solvent Chloroform): Amorphous
- Resulting Form ([3]; solvent Cumene): Amorphous
- Resulting Form ([3]; solvent Cyclohexane): Amorphous
- Resulting Form ([3]; solvent Dichloromethane): Amorphous
- Resulting Form ([3]; solvent Dimethylsulfoxide): No signal
- Resulting Form ([3]; solvent Ethyl acetate): Amorphous
- Resulting Form ([3]; solvent Ethyl ether): Amorphous
- Resulting Form ([3]; solvent Ethyl formate): Solvate(1:1)
- Resulting Form ([3]; solvent Ethylene glycol): Solvate
- Resulting Form ([3]; solvent Formamide): Amorphous
- Resulting Form ([3]; solvent Formic acid): No signal
- Resulting Form ([3]; solvent Heptane): Solvate
- Resulting Form ([3]; solvent Hexane): Amorphous
- Resulting Form ([3]; solvent Isobutyl acetate): Amorphous
- Resulting Form ([3]; solvent Isopropyl acetate): Amorphous
- Resulting Form ([3]; solvent Methanol): Solvate
- Resulting Form ([3]; solvent Methyl acetate): Solvate
- Resulting Form ([3]; solvent Methyl tetrahydrofuran): Solvate(1:1)
- Resulting Form ([3]; solvent Methylbutyl ketone): Amorphous
- Resulting Form ([3]; solvent Methylcyclohexane): Amorphous
- Resulting Form ([3]; solvent Methylethyl ketone): Solvate(1:1)
- Resulting Form ([3]; solvent N,N-Dimethylacetamide): Solvate
- Resulting Form ([3]; solvent N,N-Dimethylformamide): No signal
- Resulting Form ([3]; solvent N-Methylpyrrolidinone): No signal
- Resulting Form ([3]; solvent Nitromethane): Amorphous
- Resulting Form ([3]; solvent Pentane): Amorphous
- Resulting Form ([3]; solvent Propyl acetate): Amorphous
- Resulting Form ([3]; solvent Tetrahydrofuran): Solvate(1:1)
- Resulting Form ([3]; solvent Tetralin): Amorphous
- Resulting Form ([3]; solvent Toluene): Amorphous
- Resulting Form ([3]; solvent Water): Amorphous
- Resulting Form ([3]; solvent acetic acid): Solvate
- Resulting Form ([3]; solvent t-Butylmethylether): Amorphous
- Resulting Form ([3]; solvent xylene): Amorphous
